Test: Inhibition of PAF-induced platelet aggregation

| IC50 [µM] | SMILES |
| --- | --- |
| 0.47 | Cc1ncccc1C(C#N)N1CCN(C(=O)CC(NC(N)=O)c2ccccc2)CC1 (stereo not given) [(3-{4-[Cyano-(2-methyl-pyridin-3-yl)-methyl]-piperazin-1-yl}-3-oxo-1-phenyl-propyl)-urea] |
| 0.12 | Cc1ncccc1C(C#N)N1CCN(C(=O)CCNC(c2ccccc2)c2ccccc2)CC1 (stereo not given) [{4-[3-(Benzhydryl-amino)-propionyl]-piperazin-1-yl}-(2-methyl-pyridin-3-yl)-acetonitrile] |
| 0.02 | COC(=O)N(C)C(CC(=O)N1CCN(C(C#N)c2cccnc2C)CC1)c1ccccc1 (stereo not given) [(3-{4-[Cyano-(2-methyl-pyridin-3-yl)-methyl]-piperazin-1-yl}-3-oxo-1-phenyl-propyl)-methyl-carbamic acid methyl ester] |
| 0.014 | CCOC(=O)NC(CC(=O)N1CCN(C(C#N)c2cccnc2C)CC1)c1ccccc1 (stereo not given) [(3-{4-[Cyano-(2-methyl-pyridin-3-yl)-methyl]-piperazin-1-yl}-3-oxo-1-phenyl-propyl)-carbamic acid ethyl ester] |
| 0.064 | Cc1ncccc1C(C#N)N1CCN(C(=O)CC(NC(=O)N2CCCC2)c2ccccc2)CC1 (stereo not given) [Pyrrolidine-1-carboxylic acid (3-{4-[cyano-(2-methyl-pyridin-3-yl)-methyl]-piperazin-1-yl}-3-oxo-1-phenyl-propyl)-amide] |
| 0.026 | Cc1ncccc1C(C#N)N1CCN(C(=O)C(C)(C)C(F)(c2ccccc2)c2ccccc2)CC1 (stereo not given) [[4-(3-Fluoro-2,2-dimethyl-3,3-diphenyl-propionyl)-piperazin-1-yl]-(2-methyl-pyridin-3-yl)-acetonitrile] |
| 0.022 | Cc1ncccc1C(C#N)N1CCN(C(=O)CC(NC(=O)OCc2ccccc2)c2ccccc2)CC1 (stereo not given) [(3-{4-[Cyano-(2-methyl-pyridin-3-yl)-methyl]-piperazin-1-yl}-3-oxo-1-phenyl-propyl)-carbamic acid benzyl ester] |
| 0.012 | COC(=O)NC(CC(=O)N1CCN(C(C#N)c2cccnc2C)CC1)c1ccc(C(F)(F)F)cc1 (stereo not given) [[3-{4-[Cyano-(2-methyl-pyridin-3-yl)-methyl]-piperazin-1-yl}-3-oxo-1-(4-trifluoromethyl-phenyl)-propyl]-carbamic acid methyl ester] |
| 0.04 | Cc1ncccc1C(C#N)N1CCN(C(=O)CNC(c2ccccc2)c2ccccc2)CC1 (stereo not given) [{4-[2-(Benzhydryl-amino)-acetyl]-piperazin-1-yl}-(2-methyl-pyridin-3-yl)-acetonitrile] |
| 0.018 | Cc1ncccc1C(C#N)N1CCN(C(=O)CC(c2ccccc2)c2ccccc2)CC1 (stereo not given) [[4-(3,3-Diphenyl-propionyl)-piperazin-1-yl]-(2-methyl-pyridin-3-yl)-acetonitrile] |
| 0.0089 | Cc1ncccc1C(C#N)N1CCN(C(=O)CC(NC(=O)c2cccnc2)c2ccccc2)CC1 (stereo not given) [N-(3-{4-[Cyano-(2-methyl-pyridin-3-yl)-methyl]-piperazin-1-yl}-3-oxo-1-phenyl-propyl)-nicotinamide] |
| 0.0091 | Cc1ncccc1C(C#N)N1CCN(C(=O)CC(NCc2ccccc2)c2ccccc2)CC1 (stereo not given) [[4-(3-Benzylamino-3-phenyl-propionyl)-piperazin-1-yl]-(2-methyl-pyridin-3-yl)-acetonitrile] |
| 0.031 | CC(=O)NC(CC(=O)N1CCN(C(C#N)c2cccnc2C)CC1)c1ccccc1 (stereo not given) [N-(3-{4-[Cyano-(2-methyl-pyridin-3-yl)-methyl]-piperazin-1-yl}-3-oxo-1-phenyl-propyl)-acetamide] |
| 0.03 | Cc1ncccc1C(C#N)N1CCN(C(=O)CC(c2ccccc2)N2CCCC2=O)CC1 (stereo not given) [(2-Methyl-pyridin-3-yl)-{4-[3-(2-oxo-pyrrolidin-1-yl)-3-phenyl-propionyl]-piperazin-1-yl}-acetonitrile] |
| 0.063 | Cc1ncccc1C(C#N)N1CCN(C(=O)CC(c2ccccc2)N2CCOC2=O)CC1 (stereo not given) [(2-Methyl-pyridin-3-yl)-{4-[3-(2-oxo-oxazolidin-3-yl)-3-phenyl-propionyl]-piperazin-1-yl}-acetonitrile] |
| 15.2 | CNC(=O)C(CC(=O)N1CCN(C(C#N)c2cccnc2C)CC1)c1ccccc1 (stereo not given) [4-{4-[Cyano-(2-methyl-pyridin-3-yl)-methyl]-piperazin-1-yl}-N-methyl-4-oxo-2-phenyl-butyramide] |
| 0.068 | COC(=O)N(Cc1ccccc1)C(CC(=O)N1CCN(C(C#N)c2cccnc2C)CC1)c1ccccc1 (stereo not given) [Benzyl-(3-{4-[cyano-(2-methyl-pyridin-3-yl)-methyl]-piperazin-1-yl}-3-oxo-1-phenyl-propyl)-carbamic acid methyl ester] |
| 0.086 | Cc1ncccc1C(C#N)N1CCN(C(=O)CNC(C)(c2ccccc2)c2ccccc2)CC1 (stereo not given) [{4-[2-(1,1-Diphenyl-ethylamino)-acetyl]-piperazin-1-yl}-(2-methyl-pyridin-3-yl)-acetonitrile] |
| 0.05 | Cc1ncccc1C(C#N)N1CCN(C(=O)CNC2c3ccccc3-c3ccccc32)CC1 (stereo not given) [{4-[2-(9H-Fluoren-9-ylamino)-acetyl]-piperazin-1-yl}-(2-methyl-pyridin-3-yl)-acetonitrile] |

| IC50 [µM] | SMILES |
| --- | --- |
| 0.74 | Cc1ncccc1C(C#N)N1CCN(C(=O)CC(N)c2ccccc2)CC1 (stereo not given) [[4-(3-Amino-3-phenyl-propionyl)-piperazin-1-yl]-(2-methyl-pyridin-3-yl)-acetonitrile] |
| 0.013 | Cc1ncccc1C(C#N)N1CCN(C(=O)[C@H](C)NC(c2ccccc2)c2ccccc2)CC1 (stereo not given in full) [{4-[2-(Benzhydryl-amino)-propionyl]-piperazin-1-yl}-(2-methyl-pyridin-3-yl)-acetonitrile] |
| 0.0091 | Cc1ncccc1C(C#N)N1CCN(C(=O)CC(NC(=O)c2ccccc2)c2ccccc2)CC1 (stereo not given) [N-(3-{4-[Cyano-(2-methyl-pyridin-3-yl)-methyl]-piperazin-1-yl}-3-oxo-1-phenyl-propyl)-benzamide] |
| 0.15 | Cc1ncccc1C(C#N)N1CCN(C(=O)CNC(c2ccc(F)cc2)c2ccc(F)cc2)CC1 (stereo not given) [[4-(2-{[Bis-(4-fluoro-phenyl)-methyl]-amino}-acetyl)-piperazin-1-yl]-(2-methyl-pyridin-3-yl)-acetonitrile] |
| 0.017 | Cc1ncccc1C(C#N)N1CCN(C(=O)CC(O)(c2ccccc2)c2ccccc2)CC1 (stereo not given) [[4-(3-Hydroxy-3,3-diphenyl-propionyl)-piperazin-1-yl]-(2-methyl-pyridin-3-yl)-acetonitrile] |
| 0.03 | Cc1ncccc1C(C#N)N1CCN(C(=O)[C@@H](C)NC(c2ccccc2)c2ccccc2)CC1 (stereo not given in full) [{4-[2-(Benzhydryl-amino)-propionyl]-piperazin-1-yl}-(2-methyl-pyridin-3-yl)-acetonitrile] |
| 0.86 | C#CC(c1cccnc1C)N1CCN(C(=O)CNC(c2ccccc2)c2ccccc2)CC1 (stereo not given) [2-(Benzhydryl-amino)-1-{4-[1-(2-methyl-pyridin-3-yl)-prop-2-ynyl]-piperazin-1-yl}-ethanone] |
| 0.041 | COC(=O)NC(CC(=O)N1CCN(C(C#N)c2cccnc2C)CC1)c1ccccc1 (stereo not given) [(3-{4-[Cyano-(2-methyl-pyridin-3-yl)-methyl]-piperazin-1-yl}-3-oxo-1-phenyl-propyl)-carbamic acid methyl ester] |
| 0.041 | Cc1ncccc1C(C#N)N1CCN(C(=O)CC(c2ccccc2)N(Cc2ccccc2)Cc2ccccc2)CC1 (stereo not given) [[4-(3-Dibenzylamino-3-phenyl-propionyl)-piperazin-1-yl]-(2-methyl-pyridin-3-yl)-acetonitrile] |
| 0.02 | Cc1ncccc1C(C#N)N1CCN(C(=O)CC(c2ccccc2)N(C)Cc2ccccc2)CC1 (stereo not given) [{4-[3-(Benzyl-methyl-amino)-3-phenyl-propionyl]-piperazin-1-yl}-(2-methyl-pyridin-3-yl)-acetonitrile] |
| 0.075 | Cc1ncccc1C(C#N)N1CCN(C(=O)CC(NCc2cccnc2)c2ccccc2)CC1 (stereo not given) [(2-Methyl-pyridin-3-yl)-(4-{3-phenyl-3-[(pyridin-3-ylmethyl)-amino]-propionyl}-piperazin-1-yl)-acetonitrile] |
| 0.028 | Cc1ncccc1C(C#N)N1CCN(C(=O)CC(Nc2ccccc2)c2ccccc2)CC1 (stereo not given) [(2-Methyl-pyridin-3-yl)-[4-(3-phenyl-3-phenylamino-propionyl)-piperazin-1-yl]-acetonitrile] |
| 0.018 | C=CCNC(CC(=O)N1CCN(C(C#N)c2cccnc2C)CC1)c1ccccc1 (stereo not given) [[4-(3-Allylamino-3-phenyl-propionyl)-piperazin-1-yl]-(2-methyl-pyridin-3-yl)-acetonitrile] |
| 0.02 | CC(=O)N(CC(=O)N1CCN(C(C#N)c2cccnc2C)CC1)C(c1ccccc1)c1ccccc1 (stereo not given) [N-Benzhydryl-N-(2-{4-[cyano-(2-methyl-pyridin-3-yl)-methyl]-piperazin-1-yl}-2-oxo-ethyl)-acetamide] |
| 0.27 | C#CCNC(CC(=O)N1CCN(C(C#N)c2cccnc2C)CC1)c1ccccc1 (stereo not given) [(2-Methyl-pyridin-3-yl)-[4-(3-phenyl-3-prop-2-ynylamino-propionyl)-piperazin-1-yl]-acetonitrile] |
| 0.034 | Cc1ncccc1C(C#N)N1CCN(C(=O)[C@H](CO)NC(c2ccccc2)c2ccccc2)CC1 (stereo not given in full) [{4-[2-(Benzhydryl-amino)-3-hydroxy-propionyl]-piperazin-1-yl}-(2-methyl-pyridin-3-yl)-acetonitrile] |
| 0.038 | CCc1ncccc1C(C#N)N1CCN(C(=O)CNC(c2ccccc2)c2ccccc2)CC1 (stereo not given) [{4-[2-(Benzhydryl-amino)-acetyl]-piperazin-1-yl}-(2-ethyl-pyridin-3-yl)-acetonitrile] |
| 0.08 | Cc1ncccc1C(C#N)N1CCN(C(=O)CCC(c2ccccc2)c2ccccc2)CC1 (stereo not given) [[4-(4,4-Diphenyl-butyryl)-piperazin-1-yl]-(2-methyl-pyridin-3-yl)-acetonitrile] |
| 0.03 | Cc1ncccc1C(C#N)N1CCN(C(=O)CN(C=O)C(c2ccccc2)c2ccccc2)CC1 (stereo not given) [N-Benzhydryl-N-(2-{4-[cyano-(2-methyl-pyridin-3-yl)-methyl]-piperazin-1-yl}-2-oxo-ethyl)-formamide] |

| SMILES | IC50 [µM] |
| --- | --- |
| Cc1ncccc1C(C#N)N1CCN(C(=O)CSC(c2ccccc2)c2ccccc2)CC1 (stereo not given) [[4-(2-Benzhydrylsulfanyl-acetyl)-piperazin-1-yl]-(2-methyl-pyridin-3-yl)-acetonitrile] | 0.079 |
| Cc1ncccc1C(C#N)N1CCN(C(=O)CC(NC(=O)Oc2ccccc2)c2ccccc2)CC1 (stereo not given) [(3-{4-[Cyano-(2-methyl-pyridin-3-yl)-methyl]-piperazin-1-yl}-3-oxo-1-phenyl-propyl)-carbamic acid phenyl ester] | 0.016 |
